The source of these data is patent US7001903B2, “Synergistic insecticidal mixtures” (Bayer Aktiengesellschaft, priority 1999, dated 2006).

Common to all, as to format: in vivo
One test concerns Myzus persicae. The experiment in a line: Critical concentration test, foliar insecticidal activity against sucking pests (leaf dip, cabbage). Conditions: Myzus persicae on cabbage. An excerpt: Activity of Folia-Insecticidal Formulations Against Sucking Pests
The insecticidal activity was examined using the critical concentration test. From each of the test preparations, an aqueous dilution series is made by diluting the individual concentrations by the factor 5.
To determine any synergistic activity, weakly active concentrations of chloronicotinyl compounds are combined with various active compound concentrations of Tracer (Spinosad).
The test plants used are cabbage plants at the one-leaf stage which are infested by Myzus persicae (green peach aphid). The shoots or leaves with the aphids are dipped for approximately 3 seconds into the respective liquors. The experiments are subsequently placed in a greenhouse at 21° C. and 65% relative atmospheric humidity.
Evaluation for mortality is carried out after 2 and 7 days.

The subject of test [1] is Phaedon cochleariae larvae. The experiment in a line: Critical concentration test / root-systemic action (cabbage, soil treatment). The method, then:
(§1) Critical Concentration Test/Root-Systemic Action
To produce a suitable preparation of active compound, 1 part by weight of active compound is mixed with the stated amount of solvent, the stated amount of emulsifier is added and the concentrate is diluted with water to the desired concentration.
The active compound preparation is mixed intimately with soil. The concentration of the active compound in the preparation is of virtually no importance, only the amount by weight of active compound per unit volume of soil, which is given in ppm (=mg/l), being decisive. The treated soil is filled into 500 ml pots, 8 cabbage seeds are placed at a depth of approximately 1 cm, the hole is filled and the soil surface is pressed down gently.
After a further 3 days, the test is evaluated by estimating the leaf-feeding in the treated and in the untreated plant. The effect is 100% if, compared with the untreated control, only […] feeding damage is observed; it is 0% when the entire cabbage has been eaten.

In a further test the test system is Aphis fabae. In words: Critical concentration test / root-systemic action (broad beans, soil treatment). Conditions: 0.035 ppm in soil. The method, then: as §1
To produce a suitable preparation of active compound, 1 part by weight of active compound is mixed with a stated amount of solvent, the stated amount of emulsifier is added and the concentrate is diluted with water to the desired concentration.
The active compound preparation is mixed intimately with soil. The concentration of the active compound in the preparation is of virtually no importance, only the amount by weight of active compound per unit volume of soil, which is given in ppm (=mg/l), being decisive. The treated soil is filled into 250 ml pots and the pots are planted with pre-germinated broad beans. In this manner, the active compound can be taken up from the soil by the roots of the plants and transported into the leaves.
After a further 7 days, the test is evaluated by estimating the dead animals. The root-systemic effect of the active compound is deduced from the destruction figures. It is 100% when all the test animals have been killed and 0% when just as many test insects are still alive as in the untreated control.

The mark [2] stands for this setting: compound (III) alone 0.00016% a.i., evaluation after 2 days.
The mark [3] stands for this setting: compound (III) alone 0.00016% a.i., evaluation after 7 days.
The mark [4] stands for this setting: compound (III) alone 0.0008% a.i., evaluation after 2 days.
[5] abbreviates: compound (III) alone 0.0008% a.i., evaluation after 7 days.

`N#C/N=C1\SCCN1Cc1ccc(Cl)nc1` [Compound (III l)]: the kill with Myzus persicae (setting [2]) was 8%; with Myzus persicae (setting [3]) it was 0%; with Myzus persicae (setting [4]), 85%; in the test on Myzus persicae (setting [5]), 38%. In addition, the “Degree of destruction in % at active compound concentrations” value (shortened to “Degree of destruction in %”) in test [1] (2.50 ppm in soil) is 2.50 ppm = 0%.

Turning to `O=[N+]([O-])/N=C1\NCCN1Cc1ccc(Cl)nc1` [Compound (IIIa)], the kill came to 18% in the test with Myzus persicae (setting [2]), 2% in the test with Myzus persicae (setting [3]), 90% in the test on Myzus persicae (setting [4]) and 78% in the test with Myzus persicae (setting [5]). The “Degree of destruction in %” value in the test with Aphis fabae is listed as 0.035 ppm = 50%; in test [1] (1.25 ppm in soil), 1.25 ppm = 0%.

On to `C/C(=N\C#N)N(C)Cc1ccc(Cl)nc1` [Compound (IIIe)], for which, in test [1] (5.00 ppm in soil), the “Degree of destruction in %” value is listed as 5.00 ppm = 0%.

Regarding `CN1COCN(Cc2cnc(Cl)s2)/C1=N/[N+](=O)[O-]` [Compound (IIIg)], the kill in the test with Myzus persicae (setting [2]) worked out at 0%; in the test on Myzus persicae (setting [3]), 0%; with Myzus persicae (setting [4]) it was 79%; in the test on Myzus persicae (setting [5]) it was 70%. In addition, the “Degree of destruction in %” value in test [1] (0.30 ppm in soil) is recorded as 0.30 ppm = 50%.

Take `CN/C(=N\[N+](=O)[O-])NCc1cnc(Cl)s1` [Compound (IIIk)]: the kill was determined as 10% in the test on Myzus persicae (setting [2]), 2% in the test with Myzus persicae (setting [3]), 48% in the test on Myzus persicae (setting [4]) and 28% in the test with Myzus persicae (setting [5]). Further, in test [1] (0.30 ppm in soil), the “Degree of destruction in %” value is 0.30 ppm = 0%.
